One test concerns mutant Htt gene. Put plainly: RT-PCR of Htt mRNA in Hdh Q111/Q111 striatal cells. The class given is cell-based, mouse. The settings on record: compared to mock control. The procedure:
Tet-on HeLa cells (Clontech Laboratories), and stable line 2-PN4 and 21-VS were cultured in DMEM (Gibco) supplemented with 10% Tet-off fetal bovine serum (Gibco) at 37° C. with 5% CO2. Hdh Q7/Q7 (mouse), Hdh Q111/Q111 (mouse) were cultured in DMEM (HyClone) supplemented with 10% fetal bovine serum at 33° C. with 5% C02.
Total RNA was extracted from murine neuronal cells using TRI Reagent (Sigma). For cDNA conversion, 2 μg of total RNA was mixed with 5 μM random primer, 5 μM SnRNA U6 rt-PCR primer and 500 μM dNTPs, incubated at 65° C. for 5 min and then chilled on ice. After addition of First-Strand Buffer, DTT (Cf=10 mM) and 1 μl reverse transcriptase (Invitrogen), the reaction was carried out at 42° C. for 1 hr. Equal volumes of cDNA products were PCR amplified and resolved on 2.5% agarose gels to determine the abundance of Htt transcripts after normalization with U6 or 18S ribosomal RNA.

For test [1], the target named is T1, Supt4h-GL1 / NGN-GL2 interaction (Homo sapiens, UniProt O00267+P63272).
T1 construct: the amino terminal domain of Supt5h (NGN); expressed in transfected cells; host or cells: M2-8, a clone of 293-R1 (HEK 293), RSL1-induced
Briefly: Split Gaussia luciferase complementation assay in M2-8 (HEK-293) cells. The class given is cell-based. The settings on record: M2-8 cells, RSL1 150 nM. As to the method:
ii: M2-8 is a cloned 293-R1 cell which can inducibly express pNEBR-X1-Supt4h-G1-NGN-G2 by addition of RSL1. Two point mutations (M431 and M1101) were introduced to the GL1 and GL2 for better stability according to “A high-throughput cell-based Gaussia luciferase reporter assay for identifying modulators of fibulin-3 secretion” published on J Biomol Screen. 2013 July; 18(6):647-58. The cell line was selected by Hygromycin.
Plasmids harboring the Gluc1 and Gluc2 were co-transfected in a 1:1 ratio into 293-R1 cells plated on tissue culture treated 24-well plates using Lipofectamine 2000 according to the manufacturer's instruction. […] Signal intensities (integrated 100 ms) were read on Tecan Infinite M200 or M1000.
Human genes encoding the Supt4h protein or the amino terminal domain of Supt5h (NGN) were each fused with genes that encode subunits (GLuc1 or GLuc2) of Gaussia princeps luciferase to generate Supt4h-GL1 and NGN-GL2. […] The Gausssia luciferase substrate, native Coelenterazine, was added at a final concentration of 10 μg/ml to extracts of cells containing the indicated constructs and the magnitude of luminescence was determined using a luminometer (Tecan Infinite M200) that detects light emitted by luciferase. […] The luciferase activity that is detected is very specific and results only from interaction between the Supt4h and NGN. […]

Test [2] deals with Supt4h-YC and NGN-YN protein expression. Put plainly: Western blot of Supt4h-YC and NGN-YN protein levels in 2-PN4 cells. The class given is cell-based, human. The procedure: As described (Liu et al., “Spt4 is selectively required for transcription of extended trinucleotide repeats,” Cell (2012) 148:690-701), equal amounts of protein were resolved by electrophoresis on 12% sodium dodecyl sulfate (SDS)-polyacrylamide gels, and transferred onto nitrocellulose membranes (nitrocellulose, Waterman 0.45 μM, NBA085C). After blocking with 5% low-fat milk in Tris-buffer saline containing 0.1% Tween-20, membranes were probed with primary antibodies, incubated with a horseradish peroxidase (HRP)-conjugated secondary antibody, and detected by ECL reagent (enhanced chemiluminescence, PerkinElmer).

Regarding `O=c1cnn([C@@H]2O[C@H](CO)[C@@H](O)[C@H]2O)c(=O)[nH]1` [HD101, 6-Azauridine], in the test on mutant Htt gene, the “Htt mRNA transcribed from mutant allele” value is on record as “down-regulates the expression of mutant Htt gene”. Further, the “inhibition of Supt4h/NGN interaction (luciferase activity)” value in test [1] is reported as “inhibiting the interaction between Supt4h/NGN”. For the same compound, in test [2], the “protein expression of Supt4h-YC and NGN-YN” value was “does not decrease the BiFC signal via a change in the protein level”.

The values above are taken from patent US10675293B2, “Nucleoside agents for the reduction of the deleterious activity of extended nucleotide repeat containing genes” (The Board of Trustees of the Leland Stanford Junior …, priority 2015, dated 2020).
